Test results from US9862684B2, “Modulation of K2P channels” (The Regents of the University of California, priority 2013, dated 2018).

Experiments:
[1] = biological target: T1, TREK-1 (Mus musculus, UniProt P97438); test: Modulation of TREK-1 by select compounds (agonist activity), Table 3; type: cell-based, Murine; conditions: 50 μM
T1 construct: expressed in transfected cells
T1 sequence (P97438 1-411 isoform P97438-2): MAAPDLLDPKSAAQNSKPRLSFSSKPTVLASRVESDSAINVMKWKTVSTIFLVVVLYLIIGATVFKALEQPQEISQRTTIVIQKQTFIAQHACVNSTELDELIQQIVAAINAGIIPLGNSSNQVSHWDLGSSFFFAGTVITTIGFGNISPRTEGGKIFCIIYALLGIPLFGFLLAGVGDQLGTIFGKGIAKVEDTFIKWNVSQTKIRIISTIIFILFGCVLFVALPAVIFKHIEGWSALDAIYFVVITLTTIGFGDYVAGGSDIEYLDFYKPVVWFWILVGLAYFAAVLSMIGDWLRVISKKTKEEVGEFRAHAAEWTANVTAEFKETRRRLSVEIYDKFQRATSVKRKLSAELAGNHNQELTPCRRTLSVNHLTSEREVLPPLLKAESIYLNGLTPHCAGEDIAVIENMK
Procedure: Two-electrode voltage clamp recordings were performed from defolliculated stage V-VI Xenopus oocytes 24-48 hours after injection with 0.015-6.0 ng cRNA, using microelectrodes (0.3-3.0 MΩ) filled with 3M KCl. […] Recording solutions (mM): 2K (96 NaCl, 2 KCl, 1.8 CaCl2, 2 MgCl2), 90K (90 KCl, 8 NaCl, 1.8 CaCl2, 2 MgCl2), were buffered 5 mM HEPES pH 7.4. For K2P recordings, currents we elicited by a 1 second long ramp from −150 to +50 mV from a holding potential of −80 mV (2K), or −100 to +50 mV from a holding potential of 0 mV (90K). For KCNQ2 recordings, currents were elicited by a step protocol from −120 to 60 mV, in 20 mV increments, from a holding potential of −80 mV. […] Currents were elicited by a 1 second long ramp from −150 to +50 mV from a holding potential of −80 mV.

[2] = biological target: T2, purified TRAAK channels (Homo sapiens, UniProt Q9NYG8); test: UV crosslinking and labeling of purified TRAAK channel; type: binding; conditions: TRAAK 3 μM, 254 nm UV 30 seconds, streptavidin-HRP detection
T2 sequence (Q9NYG8 1-393): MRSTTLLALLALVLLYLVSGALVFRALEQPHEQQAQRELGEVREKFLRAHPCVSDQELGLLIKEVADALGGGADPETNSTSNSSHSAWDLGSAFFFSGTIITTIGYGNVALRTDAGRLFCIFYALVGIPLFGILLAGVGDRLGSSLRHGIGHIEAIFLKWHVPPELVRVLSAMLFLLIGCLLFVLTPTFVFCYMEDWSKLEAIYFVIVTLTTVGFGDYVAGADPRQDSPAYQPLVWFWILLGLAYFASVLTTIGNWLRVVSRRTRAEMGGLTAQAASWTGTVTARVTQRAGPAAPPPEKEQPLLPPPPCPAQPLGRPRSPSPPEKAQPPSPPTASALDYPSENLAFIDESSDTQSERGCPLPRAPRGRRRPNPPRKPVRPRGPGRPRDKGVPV
Procedure: FIG. 15 Crosslinking and labeling of TRAAK channel with ML67-151; crosslinking of ML67-151 to purified TRAAK channels (3 μM) following exposure to 254 nm UV light for 30 seconds; left is SDS-PAGE of purified TRAAK, top middle is streptavidin-HRP detection following addition of clickable biotin; bottom middle is Ponceau S staining
Crosslinking of ML67-151 to purified TRAAK channels (3 μM) following exposure to 254 nm UV light for 30 seconds is shown in the top middle blot of FIG. 15, including streptavidin-HRP detection following addition of clickable biotin.

% activity at 50 μM [1]: About 50% activity of ML67-33 at 50 μM
Compound: C#Cc1ccc(S(=O)(=O)NC(=O)CCN2c3ccc(N=[N+]=[N-])cc3C3(CCCCC3)c3cc(N=[N+]=[N-])ccc32)cc1 [ML67-151, 1-(2-azido-10-{2-[(4-ethynylbenzene-sulfonyl)carbamoyl]ethyl}-10H-spiro[acridine-9,1′-cyclohexane]-7-yl)triaza-1,2-dien-2-ium]
crosslinking and labeling of TRAAK channel (in words) [2]: capable of crosslinking and labeling TRAAK channel
